In patent publication US20190390161A1, “CULTURE MEDIUM COMPRISING OLIGOPEPTIDES” (Evonik Degussa GmbH, priority 2017, published 2019):
One block for each compound: values may come before it. Peptide text beside a SMILES is read from it.

Tests used:
[1] = cited from earlier work; for Solubility Xxx: free amino acid, CRC Handbook of Chemistry and Physics; for solubility: prior art values, background
[2] = test system: antibody producing Chinese Hamster Ovary (CHO) cells (Subclone DG44); test: Experiment 1: cell growth (VCD) in TC-42 media, cysteine/cystine or leucine replaced by dipeptides; format: cell-based; design: Viable cell densities (VCD) / maximum cell densities (max. VCD): unit not given here
Source text: The influence of the L-lysine dipeptides on the growth of antibody producing Chinese Hamster Ovary (CHO) cells (Subclone DG44; Life Technologies Cooperation, Carslbad, USA) in comparison to media containing either the corresponding free amino acids or the corresponding L-alanine dipeptides was investigated. For this purpose, the cells were cultivated in a TC-42 media produced by Xell AG, Bielefeld, Germany in which the amino acids provided within the experiments by dipeptides were lacking. The concentrations of these amino acids were adjusted in such a way that, taking into account a complete hydrolysis of the dipeptides into the amino acids, the concentration of all amino acids were the same in all media tested within this experiment. […] Experiment 1: Comparison of the Cell Growths Obtained with TC-42 media in which L-cysteine/L-cystine is replaced by bis-L-alanyl-L-cystine, bis-L-prolyl-L-cystine or bis-L-lysyl-L-cystine and L-leucine is replaced by […] For this experiment a TC-42 media produced by Xell AG, Bielefeld, Germany in which […]-cystine and L-leucine were deliberately left out of the initial formulation. […] [table]

[3] = test system: antibody producing Chinese Hamster Ovary (CHO) cells (Subclone DG44); test: Experiment 2: cell growth (VCD) in TC-42 media, L-tyrosine replaced by dipeptides; format: cell-based; design: key to Viable cell densities (VCD) / maximum cell densities (max VCD): 10^6 cells/ml
Source text: (§1) The influence of the L-lysine dipeptides on the growth of antibody producing Chinese Hamster Ovary (CHO) cells (Subclone DG44; Life Technologies Cooperation, Carslbad, USA) in comparison to media containing either the corresponding free amino acids or the corresponding L-alanine dipeptides was investigated. For this purpose, the cells were cultivated in a TC-42 media produced by Xell AG, Bielefeld, Germany in which the amino acids provided within the experiments by dipeptides were lacking. The concentrations of these amino acids were adjusted in such a way that, taking into account a complete hydrolysis of the dipeptides into the amino acids, the concentration of all amino acids were the same in all media tested within this experiment.
(§2) Starting from a preparatory culture an initial viable cell density (VCD) of 0.3·10^6 cells/ml was adjusted in shaking flasks by adding the test media. After 2-4 days a part of the cell culture was transferred into a new shaking flask and an initial viable cell density (VCD) of 0.3.10^6 cells/ml was adjusted by adding new test media. This was done two times and then the cell growth was followed by measuring the viable cell density (VCD) for up to 24 days.
These amino acids and the dipeptides L-alanyl-L-tyrosine dihydrate and L-lysyl-L-tyrosine acetate, respectively, were then added to the test media in the concentration listed in table 4.

[4] = Solubility found for Lys-Xxx dipeptides; conditions: as hydrochloride or as acetate (footnotes 6, 7)
[5] = test system: antibody producing Chinese Hamster Ovary (CHO) cells (Subclone DG44); test: Experiment 3: cell growth (VCD) in TC-42 media, L-valine or L-isoleucine replaced by lysyl dipeptides; format: cell-based; design: Viable cell densities (VCD) / maximum cell densities (max VCD): unit: 10^6 cells/ml; conditions: for maximum cell densities (max VCD) / Viable cell densities (VCD): TC-42 media of table 6; for growth curve and maximum cell density compared with reference medium (FIG. 3): equimolar amounts
Source text: as §1, §2
Experiment 3: Comparison of the Cell Growths obtained with TC-42 media in which L-valine and L-isoleucine, respectively, are replaced by L-lysyl-L-valine and L-lysyl-L-isoleucine, respectively.
For this experiment a TC-42 media produced by Xell AG, Bielefeld, Germany in which L-lysine, L-valine and L-isoleucine were lacking was used. These amino acids and the dipeptides L-lysyl-L-valine and L-lysyl-L-isoleucine, respectively, were then added to the test media in the concentration listed in table 6.

Compound: CC[C@H](C)[C@H](N)C(=O)O [L-Isoleucine]
Solubility Xxx [1]: 39.6 g/1000 g solution

Compound: Bis-L-prolyl-L-cystine [Pro2-Cyss, reference compound]
maximum cell densities (max. VCD) ([2]; TC-42 media of table 2): 0.79
Viable cell densities (VCD) ([2]; Time 0.0, TC-42 media of table 2): 0.31
Viable cell densities (VCD) ([2]; Time 0.7, TC-42 media of table 2): 0.37
Viable cell densities (VCD) ([2]; Time 2.0, TC-42 media of table 2): 0.32
Viable cell densities (VCD) ([2]; Time 2.7, TC-42 media of table 2): 0.21
Viable cell densities (VCD) ([2]; Time 3.6, TC-42 media of table 2): 0.18
Viable cell densities (VCD) ([2]; Time 3.7, TC-42 media of table 2): 0.30
Viable cell densities (VCD) ([2]; Time 4.7, TC-42 media of table 2): 0.24
Viable cell densities (VCD) ([2]; Time 5.8, TC-42 media of table 2): 0.14
Viable cell densities (VCD) ([2]; Time 6.7, TC-42 media of table 2): 0.08
Viable cell densities (VCD) ([2]; Time 6.8, TC-42 media of table 2): 0.32
Viable cell densities (VCD) ([2]; Time 7.8, TC-42 media of table 2): 0.43
Viable cell densities (VCD) ([2]; Time 8.7, TC-42 media of table 2): 0.41
Viable cell densities (VCD) ([2]; Time 9.7, TC-42 media of table 2): 0.34
Viable cell densities (VCD) ([2]; Time 10.6, TC-42 media of table 2): 0.27
Viable cell densities (VCD) ([2]; Time 11.6, TC-42 media of table 2): 0.79
cell growth performance compared with reference medium (FIG. 1) ([2]; same molar amount of cysteine and cystine in the form of dipeptides): almost no growth

Compound: L-Alanyl-L-tyrosine × 2H2O [Ala-Tyr]
Solubility Ala-Xxx ([1]; Degussa product brochure, cystine value WO 2011/133902): 15.3 g/1000 g solution
solubility [1]: 8.7 g/ltr
maximum cell densities (max VCD) ([3]; TC-42 media of table 4): 12.44
Viable cell densities (VCD) ([3]; Time [d] 0.0, TC-42 media of table 4): 0.38
Viable cell densities (VCD) ([3]; Time [d] 0.7, TC-42 media of table 4): 0.51
Viable cell densities (VCD) ([3]; Time [d] 1.7, TC-42 media of table 4): 1.22
Viable cell densities (VCD) ([3]; Time [d] 2.7, first entry, TC-42 media of table 4): 2.22
Viable cell densities (VCD) ([3]; Time [d] 2.7, second entry (after transfer into new flask), TC-42 media of table 4): 0.35
Viable cell densities (VCD) ([3]; Time [d] 4.0, TC-42 media of table 4): 0.77
Viable cell densities (VCD) ([3]; Time [d] 4.9, TC-42 media of table 4): 1.59
Viable cell densities (VCD) ([3]; Time [d] 5.7, TC-42 media of table 4): 1.93
Viable cell densities (VCD) ([3]; Time [d] 6.7, first entry, TC-42 media of table 4): 2.82
Viable cell densities (VCD) ([3]; Time [d] 6.7, second entry (after transfer into new flask), TC-42 media of table 4): 0.31
Viable cell densities (VCD) ([3]; Time [d] 7.7, TC-42 media of table 4): 0.48
Viable cell densities (VCD) ([3]; Time [d] 8.7, TC-42 media of table 4): 1.17
Viable cell densities (VCD) ([3]; Time [d] 9.7, TC-42 media of table 4): 1.92
Viable cell densities (VCD) ([3]; Time [d] 11.0, TC-42 media of table 4): 4.11
Viable cell densities (VCD) ([3]; Time [d] 11.8, TC-42 media of table 4): 6.12
Viable cell densities (VCD) ([3]; Time [d] 12.7, TC-42 media of table 4): 8.29
Viable cell densities (VCD) ([3]; Time [d] 13.7, TC-42 media of table 4): 10.49
Viable cell densities (VCD) ([3]; Time [d] 14.7, TC-42 media of table 4): 12.44
Viable cell densities (VCD) ([3]; Time [d] 15.7, TC-42 media of table 4): 11.34
Viable cell densities (VCD) ([3]; Time [d] 16.7, TC-42 media of table 4): 12.42
Viable cell densities (VCD) ([3]; Time [d] 17.9, TC-42 media of table 4): 11.06
Viable cell densities (VCD) ([3]; Time [d] 18.9, TC-42 media of table 4): 11.31
Viable cell densities (VCD) ([3]; Time [d] 19.7, TC-42 media of table 4): 11.20
Viable cell densities (VCD) ([3]; Time [d] 20.7, TC-42 media of table 4): 11.13
Viable cell densities (VCD) ([3]; Time [d] 21.7, TC-42 media of table 4): 11.24
growth curves compared with reference medium (FIG. 2) ([3]; equimolar amounts of tyrosine): no significant difference
maximum cell density compared with reference medium ([3]; equimolar amounts of tyrosine): slightly higher values

Solubility Lys-Xxx found [4]: >500 ^7) g/1000 g solution
Compound: CC[C@H](C)[C@H](NC(=O)[C@@H](N)CCCCN)C(=O)O [Lys-Ile, L-Lysyl-L-isoleucine]
maximum cell densities (max VCD) [5]: 10.67
Viable cell densities (VCD) ([5]; Time 0.0): 0.44
Viable cell densities (VCD) ([5]; Time 2.8): 1.78
Viable cell densities (VCD) ([5]; Time 3.0): 0.48
Viable cell densities (VCD) ([5]; Time 6.8): 3.36
Viable cell densities (VCD) ([5]; Time 6.9): 0.39
Viable cell densities (VCD) ([5]; Time 7.9): 0.60
Viable cell densities (VCD) ([5]; Time 8.8): 1.04
Viable cell densities (VCD) ([5]; Time 9.8): 1.73
Viable cell densities (VCD) ([5]; Time 10.8): 2.73
Viable cell densities (VCD) ([5]; Time 11.8): 4.62
Viable cell densities (VCD) ([5]; Time 12.9): 5.77
Viable cell densities (VCD) ([5]; Time 13.8): 7.19
Viable cell densities (VCD) ([5]; Time 14.8): 9.27
Viable cell densities (VCD) ([5]; Time 15.9): 9.45
Viable cell densities (VCD) ([5]; Time 16.9): 9.40
Viable cell densities (VCD) ([5]; Time 17.9): 10.56
Viable cell densities (VCD) ([5]; Time 18.8): 10.67
Viable cell densities (VCD) ([5]; Time 19.8): 9.18
Viable cell densities (VCD) ([5]; Time 21.0): 8.77
growth curve and maximum cell density compared with reference medium (FIG. 3) [5]: a slower growth and a lower maximum cell density

Compound: CC(C)C[C@H](N)C(=O)O [L-Leucine]
Solubility Xxx [1]: 23.7 g/1000 g solution

Solubility Lys-Xxx found [4]: >330 ^7) g/1000 g solution
Compound: NCCCC[C@H](N)C(=O)N[C@@H](Cc1ccc(O)cc1)C(=O)O [Lys-Tyr, L-Lysyl-L-tyrosine acetate]

Solubility Lys-Xxx found [4]: >400 ^6) g/1000 g solution
Compound: CC(C)[C@H](NC(=O)[C@@H](N)CCCCN)C(=O)O [Lys-Val, L-Lysyl-L-valine] (H-Lys-Val-OH)
maximum cell densities (max VCD) [5]: 17.25
Viable cell densities (VCD) ([5]; Time 0.0): 0.43
Viable cell densities (VCD) ([5]; Time 2.8): 2.04
Viable cell densities (VCD) ([5]; Time 3.0): 0.50
Viable cell densities (VCD) ([5]; Time 6.8): 4.37
Viable cell densities (VCD) ([5]; Time 6.9): 0.39
Viable cell densities (VCD) ([5]; Time 7.9): 0.61
Viable cell densities (VCD) ([5]; Time 8.8): 1.15
Viable cell densities (VCD) ([5]; Time 9.8): 2.07
Viable cell densities (VCD) ([5]; Time 10.8): 3.35
Viable cell densities (VCD) ([5]; Time 11.8): 5.79
Viable cell densities (VCD) ([5]; Time 12.9): 8.34
Viable cell densities (VCD) ([5]; Time 13.8): 11.08
Viable cell densities (VCD) ([5]; Time 14.8): 15.45
Viable cell densities (VCD) ([5]; Time 15.9): 16.84
Viable cell densities (VCD) ([5]; Time 16.9): 17.25
Viable cell densities (VCD) ([5]; Time 17.9): 16.27
Viable cell densities (VCD) ([5]; Time 18.8): 14.62
growth curve and maximum cell density compared with reference medium (FIG. 3) [5]: almost matching those of the reference medium

Compound: N[C@@H](CSSC[C@H](N)C(=O)O)C(=O)O [L-Cystine]
Solubility Xxx [1]: 0.1 g/1000 g solution
solubility [1]: 0.1 g/ltr

Compound: CC(C)[C@H](N)C(=O)O [L-Valine]
Solubility Xxx [1]: 81.3 g/1000 g solution
